Holding throughout (experiment): inhibition of tumour cell growth, NCI panel, 48 h
Assay [1] concerns UO-31 renal.
Assay [2] has as its system NCI/ADR-RES ovarian.
Assay [3] concerns SW-620 colon.
In assay [4] the test system is OVCAR-8 ovarian.
Assay [5] deals with BT-549 breast.
The subject of assay [6] is OVCAR-4 ovarian.
The subject of assay [7] is K-562 leukemia.
Assay [8] has as its system PC-3 prostate.
In assay [9] the test system is HOP-92 NSCLC.
In assay [10] the test system is SF-295 CNS.

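Briefly, cells in 96-well plates were exposed to five compound concentrations for 48 h, and endpoints were estimated by linear interpolation. Here, GI50 denotes the concentration required for 50% inhibition of growth. At the TGI there is no net growth.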

For `CCS(=O)(=O)N1CCN(c2ccc(Nc3ncc(C(N)=O)c(NC4CC4)n3)cc2)CC1`, the GI50 is 1.1 µM in assay [1]; 9.59 µM in [2]; 20.6 µM in assay [3]; 5.62 µM in assay [4]; 3.19 µM in assay [5]; 12.1 µM in assay [6]. The GI50 is 4.94 µM in assay [7], 16.1 µM in [8], 4.9 µM in [9] and 5.01 µM in assay [10]. Besides, the TGI in [1] is 18.4 µM; in assay [2] it was above 100 µM; in [3], 61.9 µM; in assay [4], 88.1 µM; in assay [5], 11.3 µM; in assay [6], above 100 µM. Besides, the TGI in assay [7] was above 100 µM; in assay [8] it was above 100 µM; in [9], above 100 µM; in [10], 94.3 µM.

With `OCC1OC(n2cnc3c(NCc4ccccc4O)ncnc32)C(O)C1O` (stereo not given), the GI50 in [1] was 0.717 µM; in assay [2] it was 0.435 µM; in assay [3] it was 0.291 µM; in assay [4], 0.225 µM; in assay [5], 0.177 µM; in assay [6], 0.294 µM. The GI50 in [7] is 0.634 µM; in assay [8], 0.523 µM; in assay [9], 0.709 µM; in [10], 6.48 µM. In addition, the TGI is 13.8 µM in assay [1]; 24.4 µM in [2]; above 33.9 µM in [3]; 8.09 µM in [4]; 2.29 µM in assay [5]; 8.14 µM in assay [6]. The TGI in assay [7] was above 100 µM; in assay [8], above 50.1 µM; in assay [9], 7.51 µM; in assay [10], above 56.7 µM.

Take `C/C=C(\C)C(=O)O[C@@H]1C=CC(=O)O[C@H]1CNC(=O)[C@H](C)O`: the GI50 is 21.3 µM in assay [1]; 34.6 µM in assay [2]; 10 µM in assay [3]; 30.5 µM in assay [4]; 12.5 µM in [5]; 19 µM in assay [6]. Further, the GI50 in [7] was 16.9 µM; in [8], 27.3 µM; in assay [9], 17.4 µM; in assay [10], 27.7 µM. The TGI in [1] is 59.1 µM; in [2] it was above 100 µM; in assay [3], 25.4 µM; in assay [4], above 100 µM; in assay [5] it was 28 µM; in assay [6], 42.9 µM. Besides, the TGI in [7] is 64.2 µM; in [8], above 92.2 µM; in [9], 37.5 µM; in assay [10], above 66.7 µM.

Turning to `NS(=O)(=O)c1cc(C(=O)O)c(Cl)c([N+](=O)[O-])c1Cl`, the TGI in assay [1], in assay [2], in assay [3], in assay [4], in assay [5] and in assay [6] was above 100 µM each time. Further, the TGI in assay [7], in [8], in [9] and in assay [10] was above 100 µM each time.

As to `Cc1ccc(C2C3Cc4ccccc4C3=NN2c2ccc(S(=O)(=O)NC(=O)Nc3ccccc3)cc2)cc1` (stereo not given), the GI50 in assay [1] is 11.6 µM; in assay [2], 14.7 µM; in [3], 13.1 µM; in assay [4] it was 21.6 µM; in assay [5], 14.7 µM; in assay [6], 17.9 µM. In addition, the GI50 in assay [7] was 11.5 µM; in assay [8] it was 13.5 µM; in [9] it was 14.3 µM; in [10], 12.8 µM. The TGI in assay [1] was 28.4 µM; in assay [2], 38.8 µM; in assay [3], 26 µM; in [4] it was above 100 µM; in [5], 34.5 µM; in assay [6], 50 µM. For the same compound, the TGI turned out to be 26.8 µM in assay [7], 26.3 µM in [8], 28.2 µM in assay [9] and 33.6 µM in assay [10].

In the case of `CC(=O)/C=C/c1ccc(N(CCO)Cc2ccc(C(C)(C)C)cc2)cc1`, the GI50 in assay [1] is 22.5 µM; in assay [2] it was 39.1 µM; in assay [3] it was 119 µM; in assay [4], 62.9 µM; in [5] it was 47.8 µM; in [6], 43.6 µM. Further, the GI50 was 32.2 µM in [8], 27.6 µM in assay [9] and 40.3 µM in [10]. Also, the TGI was 122 µM in [1]; 174 µM in assay [2]; 259 µM in assay [3]; 210 µM in assay [4]; 178 µM in [5]; 175 µM in assay [6]. Further, the TGI in assay [8] came to 128 µM; in assay [9], 156 µM; in assay [10], 176 µM.

With `O=C(Nc1cc2cc([N+](=O)[O-])ccc2oc1=O)c1cccs1`, the TGI in assay [1], in [2], in assay [3], in assay [4], in [5] and in assay [6] was above 100 µM throughout. Moreover, the TGI in assay [7], in assay [8], in assay [9] and in assay [10] was above 100 µM each time.

As for `NCCCNc1nc2ccccc2c2c(=O)c3cc(F)cc(Cl)c3sc12`, the GI50 in assay [1] was 1.47 µM; in [2], 1.73 µM; in [3], 1.7 µM; in [4], 1.81 µM; in [5], 12.9 µM; in [6], 1.82 µM. The GI50 in [7] is 1.78 µM; in assay [8], 1.76 µM; in assay [9] it was 1.87 µM; in assay [10], 1.75 µM. The TGI in assay [1] was determined as 2.84 µM; in assay [2], 3.46 µM; in [3] it was 3.28 µM; in [4], 3.83 µM; in assay [5], 26.7 µM; in [6] it was 3.63 µM. Moreover, the TGI is 4.1 µM in [7], 3.35 µM in [8], 11.8 µM in [9] and 3.2 µM in [10].

Consider `CN(C)C/C=C/C(=O)Nc1cc2c(Nc3cccc(Cl)c3F)ncnc2cc1OCCOC(F)F`, for which the GI50 in [1] was below 0.0187 µM; in assay [2] it was 0.771 µM; in assay [3], 2.05 µM; in assay [4], 1.11 µM; in [5], 2.02 µM; in [6], 1.5 µM. Further, the GI50 in assay [7] was 0.939 µM; in assay [8] it was 2.38 µM; in [9], 0.205 µM; in [10], 2.82 µM. The TGI came to 6.14 µM in assay [1]; 7.74 µM in assay [2]; 11.6 µM in [3]; 12.4 µM in assay [4]; 9.57 µM in [5]; 11.6 µM in assay [6]. In addition, the TGI in [7] stood at 11.6 µM; in assay [8], 13.6 µM; in [9], 2.05 µM; in assay [10], 15.6 µM.

Consider `COC(=O)[C@H](CCCCNC(=O)OCc1ccccc1)NC(=O)[C@@H](NC(=O)Nc1cc(C(F)(F)F)cc(C(F)(F)F)c1)C(C)C`, for which the GI50 in [1], in assay [2], in [3], in assay [4], in [5] and in assay [6] was above 10 µM throughout. For the same compound, the GI50 in assay [7], in assay [8], in assay [9] and in [10] was above 10 µM throughout. The TGI in [1], in assay [2], in assay [3], in assay [4], in assay [5] and in assay [6] was above 10 µM throughout. Further, the TGI in assay [7], in assay [8], in assay [9] and in assay [10] was above 10 µM throughout.

`N/C(=N/S(=O)(=O)c1cc(C(=O)Nc2ccc(F)cc2)c(Cl)cc1SCc1ccccc1)Nc1ccccc1O`: the GI50 in assay [1] is 17.3 µM; in assay [2], above 100 µM; in [3], 1.88 µM; in assay [4], 1.92 µM; in assay [5] it was 1.83 µM; in assay [6], 2.22 µM. Also, the GI50 is 1.33 µM in [7], 2.08 µM in [8], 1.9 µM in assay [9] and 1.95 µM in assay [10]. In addition, the TGI in assay [1] is 37.4 µM; in assay [2] it was above 100 µM; in assay [3], 3.54 µM; in [4], 4.14 µM; in assay [5], 4.74 µM; in assay [6], 5.14 µM. Besides, the TGI in [7] was 3.64 µM; in [8], 4.61 µM; in assay [9], 4.02 µM; in assay [10], 3.66 µM.

Consider `C=C1C(O)C2CC(C)(C)C(=O)C2=C(CC(C)C)C12CC2` (stereo not given), for which the GI50 in assay [1], in assay [2], in assay [3], in assay [4], in assay [5] and in assay [6] was above 100 µM throughout. The GI50 in assay [7], in assay [8], in assay [9] and in assay [10] was above 100 µM throughout. Further, the TGI in [1], in [2], in assay [3], in assay [4], in assay [5] and in [6] was above 100 µM each time. The TGI in assay [7], in assay [8], in [9] and in assay [10] was above 100 µM throughout.

On to `O=C(c1ccc(Nc2nccc(NCCCCNc3ccnc4cc(Cl)ccc34)n2)cc1)N1CCCCC1`, for which the GI50 in assay [1] is 1.69 µM; in [2], 12.6 µM; in assay [3], 0.589 µM; in assay [4] it was 2.63 µM; in [5] it was 1.75 µM; in [6] it was 1.95 µM. The values for the GI50 in [8], in [9] and in assay [10] were 0.955 µM, 1.52 µM and 1.54 µM, respectively. Also, the TGI is 3.79 µM in [1]; above 100 µM in assay [2]; 2.17 µM in [3]; 8.74 µM in [4]; 3.42 µM in assay [5]; 7.52 µM in [6]. The values for the TGI in assay [8], in assay [9] and in assay [10] were 7.89 µM, 3.95 µM and 3.33 µM, respectively.

With `COc1ccc(NC(=O)c2cccc(C3CCc4c(cc(OC)c(OC)c4OC)O3)c2)cc1` (stereo not given), the GI50 in [1] was 2.36 µM; in assay [2], 2.81 µM; in assay [3], 4.45 µM; in assay [4] it was 3.1 µM; in assay [5], 2.83 µM; in assay [6] it was 3.14 µM. The GI50 in assay [7] was 0.654 µM; in assay [8] it was 1.57 µM; in assay [9] it was 0.29 µM. The TGI in [1], in [2], in [3], in [4], in assay [5] and in assay [6] was above 100 µM throughout. The TGI in [7] was above 100 µM; in [8], above 100 µM; in [9], 3.49 µM.

As to `C=CCN1C(=O)[C@]2(SC1=S)[C@H](c1cccc(Cl)c1)CN(C)[C@]21C(=O)NC2C=CC(Cl)=C[C@H]21` (stereo not given in full), the GI50 is 1.85 µM in assay [1]; 4.18 µM in assay [2]; 2.89 µM in assay [3]; 4.22 µM in assay [4]; 2.06 µM in [5]; 2.13 µM in assay [6]. Moreover, the values for the GI50 in [8], in assay [9] and in [10] were 2.19 µM, 3.17 µM and 7.29 µM, respectively. The TGI in assay [1] came out at 9.06 µM; in assay [2] it was 21.2 µM; in assay [3] it was 11.6 µM; in assay [4] it was 17.3 µM; in assay [5] it was 8.49 µM; in assay [6], 10.2 µM. The TGI in assay [8] turned out to be 13 µM; in assay [9], 14.9 µM; in assay [10] it was 21.4 µM.

In the case of `Cc1cn2c(/C=C3\C(=O)N(C)c4ccc(Cl)cc43)c(C)nc2s1`, the GI50 in [1] was 7.18 µM; in assay [2], 1.9 µM; in assay [3], 4.27 µM; in assay [4], 5.5 µM; in [5] it was 6.4 µM; in assay [6] it was 6.18 µM. The GI50 was 0.99 µM in [8], 6.3 µM in assay [9] and 3.63 µM in [10]. Further, the TGI is 67.1 µM in [1]; 5.66 µM in assay [2]; above 100 µM in assay [3]; above 100 µM in assay [4]; above 100 µM in assay [5]; 91 µM in assay [6]. The TGI is 4.38 µM in assay [8], 45.4 µM in assay [9] and above 100 µM in [10].

These data come from PubChem BioAssay (NCI).
